Our source for the remaining binding values is patent US12479847B2 (DANA-FARBER CANCER INSTITUTE, INC., priority 2019, dated 2025).

What all share (assay): KINOMEscan (ScanMAX) kinase profiling
What all share (assay type): binding

Test [1] concerns the target T1, panel of 468 kinases (Homo sapiens, UniProt O14936).
T1 construct: purchased KINOMEscan (ScanMAX) service
T1 sequence (O14936 1-926): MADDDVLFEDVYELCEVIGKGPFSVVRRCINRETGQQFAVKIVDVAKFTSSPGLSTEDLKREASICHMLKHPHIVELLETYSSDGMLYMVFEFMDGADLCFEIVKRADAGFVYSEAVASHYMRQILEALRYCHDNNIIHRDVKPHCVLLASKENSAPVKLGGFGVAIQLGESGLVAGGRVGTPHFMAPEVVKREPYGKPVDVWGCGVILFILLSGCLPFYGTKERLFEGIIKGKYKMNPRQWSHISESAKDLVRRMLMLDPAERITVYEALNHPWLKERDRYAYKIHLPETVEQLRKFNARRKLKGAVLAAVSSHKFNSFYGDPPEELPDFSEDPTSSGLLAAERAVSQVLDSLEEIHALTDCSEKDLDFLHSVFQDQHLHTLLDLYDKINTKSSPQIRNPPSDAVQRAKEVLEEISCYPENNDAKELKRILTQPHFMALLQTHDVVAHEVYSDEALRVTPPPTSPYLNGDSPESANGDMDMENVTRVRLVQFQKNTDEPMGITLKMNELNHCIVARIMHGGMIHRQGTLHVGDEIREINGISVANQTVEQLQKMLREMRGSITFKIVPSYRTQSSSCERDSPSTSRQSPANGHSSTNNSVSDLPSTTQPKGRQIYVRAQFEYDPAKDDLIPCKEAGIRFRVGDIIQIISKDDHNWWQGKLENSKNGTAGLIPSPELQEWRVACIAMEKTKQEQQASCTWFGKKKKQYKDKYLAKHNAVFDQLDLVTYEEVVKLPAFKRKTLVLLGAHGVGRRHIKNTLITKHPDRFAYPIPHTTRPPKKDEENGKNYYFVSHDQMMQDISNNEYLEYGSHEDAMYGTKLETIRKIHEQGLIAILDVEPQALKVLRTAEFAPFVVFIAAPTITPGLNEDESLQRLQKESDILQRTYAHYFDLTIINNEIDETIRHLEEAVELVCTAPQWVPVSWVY
As to conditions: CASK; 1 μM; read-out: % control.

Test [2] has as its target T2, panel of 468 kinases (Homo sapiens, UniProt P08631).
T2 construct: purchased KINOMEscan (ScanMAX) service
As to conditions: HCK; 1 μM; read-out: % control.

The target of test [3] is T3, panel of 468 kinases (Homo sapiens, UniProt P27448).
T3 construct: purchased KINOMEscan (ScanMAX) service
As to conditions: MARK3; 1 μM; read-out: % control.

The target of test [4] is T4, panel of 468 kinases (Homo sapiens, UniProt P51813).
T4 construct: purchased KINOMEscan (ScanMAX) service
T4 sequence (P51813 1-675): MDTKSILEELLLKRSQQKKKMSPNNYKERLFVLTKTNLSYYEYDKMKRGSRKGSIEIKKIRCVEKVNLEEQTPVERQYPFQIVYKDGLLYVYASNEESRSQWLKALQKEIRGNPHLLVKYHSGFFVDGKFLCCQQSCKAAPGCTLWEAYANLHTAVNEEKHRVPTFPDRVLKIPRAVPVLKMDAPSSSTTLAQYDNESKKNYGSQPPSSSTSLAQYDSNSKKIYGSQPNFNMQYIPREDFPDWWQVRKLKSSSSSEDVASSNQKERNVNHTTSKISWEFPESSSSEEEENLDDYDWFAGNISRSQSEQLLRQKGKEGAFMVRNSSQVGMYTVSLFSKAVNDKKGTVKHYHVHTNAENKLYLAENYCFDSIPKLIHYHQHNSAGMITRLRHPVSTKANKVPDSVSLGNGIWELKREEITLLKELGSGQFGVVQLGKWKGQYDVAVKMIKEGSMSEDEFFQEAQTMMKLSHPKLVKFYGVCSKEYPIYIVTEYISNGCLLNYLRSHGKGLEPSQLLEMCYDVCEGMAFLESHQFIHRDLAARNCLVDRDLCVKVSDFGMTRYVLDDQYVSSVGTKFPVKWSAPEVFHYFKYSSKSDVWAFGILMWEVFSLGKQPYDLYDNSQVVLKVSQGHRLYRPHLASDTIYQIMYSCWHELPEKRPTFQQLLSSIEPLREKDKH
As to conditions: BMX; 1 μM; read-out: % control.

Test [5] concerns the target T5, panel of 468 kinases (Homo sapiens, UniProt Q96GD4).
T5 construct: purchased KINOMEscan (ScanMAX) service
As to conditions: AURKB; 1 μM; read-out: % control.

In test [6] the target is T6, panel of 468 kinases (Homo sapiens, UniProt Q9NY57).
T6 construct: purchased KINOMEscan (ScanMAX) service
As to conditions: YANK2; 1 μM; read-out: % control.

Test [7] addresses T7, panel of 468 kinases (Homo sapiens, UniProt Q9UBF8).
T7 construct: purchased KINOMEscan (ScanMAX) service
As to conditions: PIK4CB; 1 μM; read-out: % control.

Test [8] addresses T8, panel of 468 kinases (Homo sapiens, UniProt Q9UEE5).
T8 construct: purchased KINOMEscan (ScanMAX) service
T8 sequence (Q9UEE5 1-414): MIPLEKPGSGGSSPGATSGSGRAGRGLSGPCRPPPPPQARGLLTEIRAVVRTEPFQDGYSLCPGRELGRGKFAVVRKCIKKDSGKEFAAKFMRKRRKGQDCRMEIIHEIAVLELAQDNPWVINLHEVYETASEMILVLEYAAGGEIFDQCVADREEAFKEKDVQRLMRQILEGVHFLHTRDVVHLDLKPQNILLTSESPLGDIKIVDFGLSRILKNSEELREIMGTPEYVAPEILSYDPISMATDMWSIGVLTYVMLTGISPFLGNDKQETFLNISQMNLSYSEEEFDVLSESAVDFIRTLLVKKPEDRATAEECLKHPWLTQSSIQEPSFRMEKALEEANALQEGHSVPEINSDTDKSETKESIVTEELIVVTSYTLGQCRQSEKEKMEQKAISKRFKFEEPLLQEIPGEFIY
As to conditions: DRAK1; 1 μM; read-out: % control.

Test [9] deals with T9, panel of 468 kinases (Plasmodium falciparum, UniProt P62344).
T9 construct: purchased KINOMEscan (ScanMAX) service
As to conditions: PFCDPK1(P.falciparum); 1 μM; read-out: % control.

T3 sequence (P27448 whole entry): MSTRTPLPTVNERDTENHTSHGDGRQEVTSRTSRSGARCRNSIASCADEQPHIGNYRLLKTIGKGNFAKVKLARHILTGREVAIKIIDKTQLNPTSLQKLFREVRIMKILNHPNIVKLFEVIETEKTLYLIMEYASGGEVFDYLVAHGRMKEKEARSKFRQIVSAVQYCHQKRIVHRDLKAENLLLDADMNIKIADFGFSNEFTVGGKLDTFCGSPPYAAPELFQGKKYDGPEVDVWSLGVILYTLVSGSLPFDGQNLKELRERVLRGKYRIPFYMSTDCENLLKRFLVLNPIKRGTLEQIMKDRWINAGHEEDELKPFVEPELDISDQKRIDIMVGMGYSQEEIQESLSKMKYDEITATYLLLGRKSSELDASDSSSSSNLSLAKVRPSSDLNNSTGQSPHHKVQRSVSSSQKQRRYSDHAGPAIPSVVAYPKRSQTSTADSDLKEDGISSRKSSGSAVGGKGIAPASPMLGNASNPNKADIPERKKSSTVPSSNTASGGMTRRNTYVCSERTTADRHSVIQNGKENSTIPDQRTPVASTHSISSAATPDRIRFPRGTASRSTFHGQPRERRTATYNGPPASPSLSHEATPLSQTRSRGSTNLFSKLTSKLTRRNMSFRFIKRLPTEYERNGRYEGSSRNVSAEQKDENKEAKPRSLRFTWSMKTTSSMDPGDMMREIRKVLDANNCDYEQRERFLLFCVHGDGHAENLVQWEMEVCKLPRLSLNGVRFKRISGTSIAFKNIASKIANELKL
T6 sequence (Q9NY57 whole entry): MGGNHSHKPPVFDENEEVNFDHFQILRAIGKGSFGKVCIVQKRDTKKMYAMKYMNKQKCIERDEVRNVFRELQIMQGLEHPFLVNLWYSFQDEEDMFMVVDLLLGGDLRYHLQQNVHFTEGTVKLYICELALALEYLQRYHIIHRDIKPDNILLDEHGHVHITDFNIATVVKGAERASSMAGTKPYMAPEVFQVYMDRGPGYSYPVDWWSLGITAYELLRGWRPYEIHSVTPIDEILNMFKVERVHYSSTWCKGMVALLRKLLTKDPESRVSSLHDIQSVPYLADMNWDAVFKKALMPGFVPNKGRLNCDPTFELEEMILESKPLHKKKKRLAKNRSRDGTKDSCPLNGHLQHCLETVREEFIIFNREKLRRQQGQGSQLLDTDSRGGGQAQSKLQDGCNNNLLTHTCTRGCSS
T7 sequence (Q9UBF8 whole entry): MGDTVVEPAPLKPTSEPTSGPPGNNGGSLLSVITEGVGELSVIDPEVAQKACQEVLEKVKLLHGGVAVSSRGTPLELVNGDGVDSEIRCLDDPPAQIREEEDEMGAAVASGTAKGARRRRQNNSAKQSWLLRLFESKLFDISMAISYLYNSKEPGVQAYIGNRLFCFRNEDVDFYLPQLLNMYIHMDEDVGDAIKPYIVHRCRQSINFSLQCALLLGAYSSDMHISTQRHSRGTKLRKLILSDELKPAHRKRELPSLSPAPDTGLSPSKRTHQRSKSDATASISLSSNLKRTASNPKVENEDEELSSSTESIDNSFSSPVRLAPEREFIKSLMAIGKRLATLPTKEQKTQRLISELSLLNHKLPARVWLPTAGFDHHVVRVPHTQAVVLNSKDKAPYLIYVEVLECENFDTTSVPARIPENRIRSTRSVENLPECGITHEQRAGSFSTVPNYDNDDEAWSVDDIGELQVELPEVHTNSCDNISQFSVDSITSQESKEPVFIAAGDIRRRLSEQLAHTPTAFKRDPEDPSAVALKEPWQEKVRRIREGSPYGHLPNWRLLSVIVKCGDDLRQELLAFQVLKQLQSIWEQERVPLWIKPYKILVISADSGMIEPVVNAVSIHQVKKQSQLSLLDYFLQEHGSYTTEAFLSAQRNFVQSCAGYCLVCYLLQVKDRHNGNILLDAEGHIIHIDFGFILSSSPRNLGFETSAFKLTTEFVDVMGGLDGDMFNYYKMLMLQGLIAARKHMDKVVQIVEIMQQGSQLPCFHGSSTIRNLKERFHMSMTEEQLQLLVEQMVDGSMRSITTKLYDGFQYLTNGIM
T2 sequence (P08631 whole entry): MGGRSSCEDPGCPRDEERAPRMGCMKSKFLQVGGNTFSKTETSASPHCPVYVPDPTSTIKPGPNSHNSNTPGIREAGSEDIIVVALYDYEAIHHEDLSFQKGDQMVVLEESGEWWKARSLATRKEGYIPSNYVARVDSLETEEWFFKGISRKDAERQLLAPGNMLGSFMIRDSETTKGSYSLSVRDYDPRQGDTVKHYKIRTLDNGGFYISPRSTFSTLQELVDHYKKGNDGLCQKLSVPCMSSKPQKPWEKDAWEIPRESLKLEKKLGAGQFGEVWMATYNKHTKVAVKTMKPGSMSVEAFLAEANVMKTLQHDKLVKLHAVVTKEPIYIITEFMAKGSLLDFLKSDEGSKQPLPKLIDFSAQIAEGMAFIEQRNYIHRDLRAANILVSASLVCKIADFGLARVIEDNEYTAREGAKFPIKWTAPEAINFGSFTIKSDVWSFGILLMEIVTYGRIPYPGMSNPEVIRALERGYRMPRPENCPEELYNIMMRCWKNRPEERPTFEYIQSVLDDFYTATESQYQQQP
T9 sequence (P62344 whole entry): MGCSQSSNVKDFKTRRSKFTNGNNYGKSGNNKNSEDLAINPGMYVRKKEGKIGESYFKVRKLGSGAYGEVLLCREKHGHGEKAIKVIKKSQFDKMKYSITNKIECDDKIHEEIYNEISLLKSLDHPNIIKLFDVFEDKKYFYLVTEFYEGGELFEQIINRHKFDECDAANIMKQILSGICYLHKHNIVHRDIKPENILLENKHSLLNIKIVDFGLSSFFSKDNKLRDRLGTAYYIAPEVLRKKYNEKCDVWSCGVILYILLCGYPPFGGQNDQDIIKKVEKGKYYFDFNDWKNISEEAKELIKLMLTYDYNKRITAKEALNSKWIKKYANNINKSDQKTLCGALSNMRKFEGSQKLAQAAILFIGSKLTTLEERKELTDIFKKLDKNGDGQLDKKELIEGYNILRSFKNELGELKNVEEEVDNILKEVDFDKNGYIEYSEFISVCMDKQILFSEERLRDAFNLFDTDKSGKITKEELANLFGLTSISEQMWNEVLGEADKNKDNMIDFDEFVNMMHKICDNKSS
T5 sequence (Q96GD4 whole entry): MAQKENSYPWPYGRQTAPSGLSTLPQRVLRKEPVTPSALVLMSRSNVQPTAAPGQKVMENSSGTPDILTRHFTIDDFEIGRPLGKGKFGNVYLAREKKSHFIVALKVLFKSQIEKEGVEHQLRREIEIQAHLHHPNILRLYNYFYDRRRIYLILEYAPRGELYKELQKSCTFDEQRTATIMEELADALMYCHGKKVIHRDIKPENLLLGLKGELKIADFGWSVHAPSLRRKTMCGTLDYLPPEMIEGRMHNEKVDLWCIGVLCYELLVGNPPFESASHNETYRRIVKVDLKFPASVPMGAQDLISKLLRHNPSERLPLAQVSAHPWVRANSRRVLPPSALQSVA

As for `CNc1nc(Nc2ccc(S(=O)(=O)N3CCC(N4CCOCC4)CC3)cc2OC)nc2[nH]cc(Cl)c12` [Compound 12, 5-chloro-N2-(2-methoxy-4-((4-morpholinopiperidin-1-yl)sulfonyl)phenyl)-N4-methyl-7H-pyrrolo[2,3-d]pyrimidine-2,4-diamine], the remaining binding at 1 µM in test [1] came to 90%; in test [2], 98%; in test [3], 100%; in [4], 97%; in [5], 73%; in test [6] it was 96%. Besides, the remaining binding at 1 µM in [7] was 100%; in test [8] it was 100%; in test [9], 97%.

As for `CNc1nc(Nc2ccc(P3(=O)CCN(C4CCOCC4)CC3)cc2OC)nc2[nH]cc(Cl)c12` [Compound 77, 4-(4-((5-chloro-4-(methylamino)-7H-pyrrolo[2,3-d]pyrimidin-2-yl)amino)-3-methoxyphenyl)-1-(tetrahydro-2H-pyran-4-yl)-1,4-azaphosphinane 4-oxide], the remaining binding at 1 µM in [1] came out at 95%; in [2] it was 100%; in test [3] it was 100%; in test [4], 99%; in [5], 74%; in [6] it was 100%. Further, the values for the remaining binding at 1 µM in test [7], in [8] and in test [9] were 100%, 95% and 90%, respectively.

In the case of `CNc1nc(Nc2ccc(C(=O)N3CCC(N4CCOCC4)CC3)c3c2OCO3)nc2[nH]cc(Cl)c12` [Compound 75, (7-((5-chloro-4-(methylamino)-7H-pyrrolo[2,3-d]pyrimidin-2-yl)amino)benzo[d][1,3]dioxol-4-yl)(4-morpholinopiperidin-1-yl)methanone], the remaining binding at 1 µM in [1] was 99%; in [2], 100%; in test [3], 100%; in test [4] it was 97%; in test [5], 57%; in test [6], 100%. Also, the remaining binding at 1 µM in test [7] was 100%; in [8], 2.8%; in test [9], 99%.
